Consider 3 molecules from ChEMBL document CHEMBL4665643 (Bioorg Med Chem Lett, 2019).

Structures are written as SMILES.

The target of experiment [1] is Protein kinase C beta type (Homo sapiens) (UniProt P05771). Nature of the experiment: Inhibition of recombinant human GST-tagged full length PKCbeta2 expressed in insect expression system using Ser/Thr 07 as substrate at 0.1 uM incubated for 60 mins by Z'-lyte assay relative to control.
For experiment [2] the target is unchanged. Briefly: Inhibition of recombinant human His-tagged full length PKCbeta1 expressed in insect expression system using Ser/Thr 07 as substrate at 0.1 uM incubated for 60 mins by Z'-lyte assay relative to control.
For experiment [3], the target named is Insulin receptor (Homo sapiens) (UniProt P06213). Briefly: Inhibition of recombinant human GST-tagged InsR (1011 to 1382 residues) expressed in baculovirus expression system using Tyr 01 as substrate at 0.1 uM incubated for 60 mins by Z'-lyte assay relative to control.
Sequence of Insulin receptor (Homo sapiens) (P06213 28-758 limits assumed): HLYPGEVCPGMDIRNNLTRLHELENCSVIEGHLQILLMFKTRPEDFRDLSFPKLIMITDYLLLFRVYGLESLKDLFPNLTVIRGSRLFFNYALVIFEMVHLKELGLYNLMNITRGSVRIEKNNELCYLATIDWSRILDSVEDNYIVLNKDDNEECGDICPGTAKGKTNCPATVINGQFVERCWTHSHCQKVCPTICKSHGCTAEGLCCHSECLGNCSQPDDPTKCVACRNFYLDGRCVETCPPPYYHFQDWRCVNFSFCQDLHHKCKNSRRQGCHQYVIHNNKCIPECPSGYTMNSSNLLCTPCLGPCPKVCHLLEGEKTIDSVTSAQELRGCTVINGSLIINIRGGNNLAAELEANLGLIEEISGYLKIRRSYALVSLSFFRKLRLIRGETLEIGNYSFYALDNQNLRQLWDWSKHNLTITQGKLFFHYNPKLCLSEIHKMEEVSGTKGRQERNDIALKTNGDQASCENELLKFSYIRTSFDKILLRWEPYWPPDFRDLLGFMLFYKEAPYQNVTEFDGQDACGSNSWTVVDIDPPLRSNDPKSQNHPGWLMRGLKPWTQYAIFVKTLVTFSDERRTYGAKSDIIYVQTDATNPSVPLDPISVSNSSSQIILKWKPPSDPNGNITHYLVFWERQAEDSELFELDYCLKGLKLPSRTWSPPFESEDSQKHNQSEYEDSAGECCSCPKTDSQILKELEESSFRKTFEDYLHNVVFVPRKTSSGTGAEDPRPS
Sequence of Insulin receptor (Homo sapiens) (P06213 763-1382 limits assumed): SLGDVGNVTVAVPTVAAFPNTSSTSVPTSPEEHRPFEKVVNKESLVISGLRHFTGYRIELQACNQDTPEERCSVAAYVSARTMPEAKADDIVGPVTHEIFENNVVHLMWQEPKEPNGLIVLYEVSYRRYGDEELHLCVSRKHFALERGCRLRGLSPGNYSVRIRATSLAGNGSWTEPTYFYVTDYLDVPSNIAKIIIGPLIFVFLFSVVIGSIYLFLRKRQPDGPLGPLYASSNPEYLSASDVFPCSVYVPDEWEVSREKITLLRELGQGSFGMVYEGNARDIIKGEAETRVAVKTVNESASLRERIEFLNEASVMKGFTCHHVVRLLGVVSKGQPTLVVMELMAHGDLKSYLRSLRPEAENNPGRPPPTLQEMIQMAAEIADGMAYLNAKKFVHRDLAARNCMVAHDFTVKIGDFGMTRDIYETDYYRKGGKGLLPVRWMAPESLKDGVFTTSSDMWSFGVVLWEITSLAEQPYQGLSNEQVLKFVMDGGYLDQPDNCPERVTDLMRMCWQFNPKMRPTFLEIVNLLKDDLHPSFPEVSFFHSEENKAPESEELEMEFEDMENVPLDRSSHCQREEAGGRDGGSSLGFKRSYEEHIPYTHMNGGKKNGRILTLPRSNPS
The target of experiment [4] is Ribosomal protein S6 kinase alpha-5 (Homo sapiens) (UniProt O75582). Nature of the experiment: Inhibition of recombinant human GST-tagged full length MSK1 expressed in baculovirus expression system using Ser/Thr 01 as substrate at 0.1 uM incubated for 60 mins by Z'-lyte assay relative to control.
Sequence of Ribosomal protein S6 kinase alpha-5 (Homo sapiens) (O75582 whole entry, looked up): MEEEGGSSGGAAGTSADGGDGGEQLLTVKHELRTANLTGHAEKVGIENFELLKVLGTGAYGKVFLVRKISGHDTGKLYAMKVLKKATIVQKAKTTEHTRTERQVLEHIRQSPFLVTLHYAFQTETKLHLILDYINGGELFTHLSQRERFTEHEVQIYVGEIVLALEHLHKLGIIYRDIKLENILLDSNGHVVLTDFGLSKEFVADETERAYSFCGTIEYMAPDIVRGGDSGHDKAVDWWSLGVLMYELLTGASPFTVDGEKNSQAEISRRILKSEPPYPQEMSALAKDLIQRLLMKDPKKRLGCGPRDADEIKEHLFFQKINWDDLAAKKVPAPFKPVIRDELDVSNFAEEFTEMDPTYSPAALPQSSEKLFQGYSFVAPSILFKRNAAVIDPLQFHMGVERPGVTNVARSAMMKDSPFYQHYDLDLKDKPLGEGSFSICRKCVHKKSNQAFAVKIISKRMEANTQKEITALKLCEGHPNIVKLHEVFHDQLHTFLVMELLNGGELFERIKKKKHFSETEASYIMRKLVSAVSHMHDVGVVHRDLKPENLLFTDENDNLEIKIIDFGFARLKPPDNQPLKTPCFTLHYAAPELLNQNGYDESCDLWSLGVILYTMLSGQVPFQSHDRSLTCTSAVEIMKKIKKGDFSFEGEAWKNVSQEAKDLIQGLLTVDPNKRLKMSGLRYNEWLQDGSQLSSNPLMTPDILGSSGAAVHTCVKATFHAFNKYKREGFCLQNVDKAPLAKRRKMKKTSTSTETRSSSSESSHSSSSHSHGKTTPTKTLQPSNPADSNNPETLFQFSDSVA
Experiment [5] has as its target T1, cGMP-dependent protein kinase 1 (Homo sapiens) (UniProt Q13976).
T1 sequence (whole entry): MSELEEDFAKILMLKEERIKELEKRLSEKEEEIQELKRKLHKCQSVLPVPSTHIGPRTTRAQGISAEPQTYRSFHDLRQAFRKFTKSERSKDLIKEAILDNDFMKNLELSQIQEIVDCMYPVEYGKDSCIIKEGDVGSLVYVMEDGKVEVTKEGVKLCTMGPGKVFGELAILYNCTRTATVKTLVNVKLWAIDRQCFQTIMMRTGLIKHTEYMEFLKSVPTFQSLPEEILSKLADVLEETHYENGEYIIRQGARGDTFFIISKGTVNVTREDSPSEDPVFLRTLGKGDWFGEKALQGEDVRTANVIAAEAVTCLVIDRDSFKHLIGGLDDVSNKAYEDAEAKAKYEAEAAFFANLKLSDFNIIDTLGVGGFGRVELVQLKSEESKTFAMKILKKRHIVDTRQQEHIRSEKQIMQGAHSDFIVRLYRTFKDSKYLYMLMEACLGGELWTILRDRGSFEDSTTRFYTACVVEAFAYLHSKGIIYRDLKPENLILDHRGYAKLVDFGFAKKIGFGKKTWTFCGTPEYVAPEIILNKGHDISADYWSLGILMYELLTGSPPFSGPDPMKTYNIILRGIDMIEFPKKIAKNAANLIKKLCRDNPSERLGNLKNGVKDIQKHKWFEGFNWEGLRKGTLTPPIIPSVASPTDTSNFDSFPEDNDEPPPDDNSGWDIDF
Nature of the experiment: Inhibition of recombinant human GST-tagged full length PKG1 alpha expressed in baculovirus expression system using Ser/Thr 01 as substrate at 0.1 uM incubated for 60 mins by Z'-Lyte assay relative to control.

Experiment [6] has as its target T2, Dual specificity protein kinase TTK (Homo sapiens) (UniProt P33981).
T2 sequence (whole entry): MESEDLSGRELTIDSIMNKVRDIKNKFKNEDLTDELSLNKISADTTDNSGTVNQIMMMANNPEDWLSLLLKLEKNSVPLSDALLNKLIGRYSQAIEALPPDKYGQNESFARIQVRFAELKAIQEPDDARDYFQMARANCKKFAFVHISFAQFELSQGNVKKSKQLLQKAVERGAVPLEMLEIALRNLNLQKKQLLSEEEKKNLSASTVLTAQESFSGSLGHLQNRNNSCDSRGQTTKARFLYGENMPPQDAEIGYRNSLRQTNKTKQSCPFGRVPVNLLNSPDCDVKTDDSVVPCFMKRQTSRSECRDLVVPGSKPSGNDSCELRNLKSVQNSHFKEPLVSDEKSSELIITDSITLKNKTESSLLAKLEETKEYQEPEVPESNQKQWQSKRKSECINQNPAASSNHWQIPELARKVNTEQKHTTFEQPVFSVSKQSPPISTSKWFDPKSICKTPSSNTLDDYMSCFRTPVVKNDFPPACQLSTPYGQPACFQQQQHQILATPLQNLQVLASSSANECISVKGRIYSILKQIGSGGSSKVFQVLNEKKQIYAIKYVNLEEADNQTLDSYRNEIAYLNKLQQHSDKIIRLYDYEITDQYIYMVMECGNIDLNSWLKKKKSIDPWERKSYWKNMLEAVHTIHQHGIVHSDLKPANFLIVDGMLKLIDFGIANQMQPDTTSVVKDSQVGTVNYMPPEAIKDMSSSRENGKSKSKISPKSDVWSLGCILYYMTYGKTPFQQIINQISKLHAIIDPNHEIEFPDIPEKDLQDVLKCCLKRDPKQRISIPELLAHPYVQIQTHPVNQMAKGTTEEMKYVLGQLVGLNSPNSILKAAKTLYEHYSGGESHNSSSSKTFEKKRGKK
Briefly: Inhibition of tracer 236 binding to recombinant human GST-tagged full length TTK expressed in baculovirus expression system at 0.1 uM incubated for 60 mins by Lanthascreen assay relative to control. (Time-resolved FRET reads energy transfer from a long-lived donor to a nearby acceptor.)

The target in experiment [7] is T3, Inhibitor of nuclear factor kappa-B kinase subunit epsilon (Homo sapiens) (UniProt Q14164).
T3 sequence (whole entry): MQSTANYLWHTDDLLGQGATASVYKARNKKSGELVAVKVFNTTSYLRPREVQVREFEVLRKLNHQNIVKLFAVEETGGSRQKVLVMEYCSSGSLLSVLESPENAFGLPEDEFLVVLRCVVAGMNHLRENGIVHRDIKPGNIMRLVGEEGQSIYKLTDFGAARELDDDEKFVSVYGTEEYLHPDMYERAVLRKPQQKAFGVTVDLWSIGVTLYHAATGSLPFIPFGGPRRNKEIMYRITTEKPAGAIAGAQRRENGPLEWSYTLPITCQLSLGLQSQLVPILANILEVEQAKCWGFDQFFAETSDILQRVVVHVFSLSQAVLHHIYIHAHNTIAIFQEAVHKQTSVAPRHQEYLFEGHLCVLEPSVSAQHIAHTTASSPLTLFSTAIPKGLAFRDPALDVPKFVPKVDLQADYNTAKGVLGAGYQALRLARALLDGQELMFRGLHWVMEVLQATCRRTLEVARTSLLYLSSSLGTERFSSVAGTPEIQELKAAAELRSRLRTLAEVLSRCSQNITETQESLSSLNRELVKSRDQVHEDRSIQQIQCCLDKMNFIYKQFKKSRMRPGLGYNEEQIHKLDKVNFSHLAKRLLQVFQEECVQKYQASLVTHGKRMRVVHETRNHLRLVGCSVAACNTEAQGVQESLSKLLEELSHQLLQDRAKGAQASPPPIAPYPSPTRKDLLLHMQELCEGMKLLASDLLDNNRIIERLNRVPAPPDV
Nature of the experiment: Inhibition of recombinant human GST-tagged full length IKKepsilon expressed in baculovirus expression system using Ser/Thr 11 as substrate at 0.1 uM incubated for 60 mins by Z'-lyte assay relative to control.

For experiment [8], the target named is Fibroblast growth factor receptor 4 (Homo sapiens) (UniProt P22455). Nature of the experiment: Inhibition of recombinant human His-tagged FGFR4 ([…]) expressed in baculovirus expression system using Tyr 04 as substrate at 0.1 uM incubated for 60 mins by Z'-Lyte assay relative to control.
Sequence of Fibroblast growth factor receptor 4 (Homo sapiens) (P22455 22-802 limits assumed): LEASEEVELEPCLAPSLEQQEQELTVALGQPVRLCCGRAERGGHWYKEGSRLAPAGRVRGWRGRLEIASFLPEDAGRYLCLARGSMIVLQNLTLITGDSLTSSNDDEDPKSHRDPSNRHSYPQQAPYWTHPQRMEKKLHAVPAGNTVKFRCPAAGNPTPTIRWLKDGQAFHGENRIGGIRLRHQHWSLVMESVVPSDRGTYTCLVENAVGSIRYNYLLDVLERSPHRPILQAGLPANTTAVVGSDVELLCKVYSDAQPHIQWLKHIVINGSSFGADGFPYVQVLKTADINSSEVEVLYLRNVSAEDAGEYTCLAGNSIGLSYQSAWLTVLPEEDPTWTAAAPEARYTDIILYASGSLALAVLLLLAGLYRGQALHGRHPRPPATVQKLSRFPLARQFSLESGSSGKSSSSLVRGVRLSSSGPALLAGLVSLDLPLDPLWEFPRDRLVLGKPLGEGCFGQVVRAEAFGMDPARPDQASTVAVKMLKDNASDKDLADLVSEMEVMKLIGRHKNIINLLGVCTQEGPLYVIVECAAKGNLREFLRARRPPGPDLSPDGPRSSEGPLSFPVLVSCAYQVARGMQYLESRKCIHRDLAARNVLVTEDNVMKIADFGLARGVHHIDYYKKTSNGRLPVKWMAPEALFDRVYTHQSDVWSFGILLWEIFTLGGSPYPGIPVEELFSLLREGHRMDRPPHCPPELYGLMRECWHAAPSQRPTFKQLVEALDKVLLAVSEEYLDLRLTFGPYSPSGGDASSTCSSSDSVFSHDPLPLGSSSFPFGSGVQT

Sequence of Protein kinase C beta type (Homo sapiens) (P05771 2-671 limits assumed): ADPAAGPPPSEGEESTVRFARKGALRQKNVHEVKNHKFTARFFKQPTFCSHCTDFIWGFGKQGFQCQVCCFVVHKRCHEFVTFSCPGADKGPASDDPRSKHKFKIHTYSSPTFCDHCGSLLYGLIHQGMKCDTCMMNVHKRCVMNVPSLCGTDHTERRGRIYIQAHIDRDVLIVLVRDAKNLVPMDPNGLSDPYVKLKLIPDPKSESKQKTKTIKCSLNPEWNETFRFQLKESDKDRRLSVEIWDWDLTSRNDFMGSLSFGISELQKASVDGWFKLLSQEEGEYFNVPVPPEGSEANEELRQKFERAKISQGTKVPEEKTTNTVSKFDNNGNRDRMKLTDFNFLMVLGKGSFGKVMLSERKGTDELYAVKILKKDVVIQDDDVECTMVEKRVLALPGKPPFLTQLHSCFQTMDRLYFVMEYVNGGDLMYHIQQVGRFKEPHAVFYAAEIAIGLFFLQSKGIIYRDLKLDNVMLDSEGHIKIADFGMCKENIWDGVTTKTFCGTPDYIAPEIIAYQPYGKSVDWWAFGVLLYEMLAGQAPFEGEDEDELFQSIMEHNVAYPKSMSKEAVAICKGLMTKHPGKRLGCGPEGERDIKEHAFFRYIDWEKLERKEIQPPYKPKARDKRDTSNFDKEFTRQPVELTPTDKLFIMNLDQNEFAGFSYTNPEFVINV

The term inhibition denotes the change of the read-out against control, counted positive when it falls. Regarding `O=C(Nc1c[nH]nc1-c1cc(Cl)ccc1OC(F)F)c1cnn2cccnc12`, the inhibition in experiment [1] worked out at 21%; in experiment [2] it was 24%; in experiment [3] it was 6%; in experiment [4], 3%; in experiment [5], 0%; in experiment [6], 4%. The inhibition in experiment [7] is 8%; in experiment [8], -1%.
For `O=C(Nc1c[nH]nc1-c1cc2ccccc2cc1OC(F)F)c1cnn2cccnc12`, the inhibition was 17% in experiment [1]; 13% in experiment [2]; -8% in experiment [3]; -2% in experiment [4]; 3% in experiment [5]; -3% in experiment [6]. Also, the figures for the inhibition in experiment [7] and in experiment [8] were 3% and 4%, respectively.
For `Cn1cc(NC(=O)c2cnn3cccnc23)c(-c2cc(Cl)ccc2OC(F)F)n1`, the inhibition in experiment [1] stood at 12%; in experiment [2], 2%; in experiment [3] it was 4%; in experiment [4] it was 5%; in experiment [5] it was 4%; in experiment [6], 5%. Also, the inhibition in experiment [7] and in experiment [8] was 5% throughout.
